Assay results published in patent publication US9902702B2, “Spirocycloheptanes as inhibitors of rock” (BRISTOL-MYERS SQUIBB COMPANY, priority 2014, dated 2018).
Counter-ions that a name gives are not always drawn.

The compounds below were run against ROCK2 (Homo sapiens, UniProt O75116) (assay: ROCK assay: phosphorylation of FITC peptide substrate, LABCHIP 3000 mobility shift). Settings: 5 μM ATP, 1.5 μM peptide substrate; read-out: ROCK2 Activity (ROCK IC50 range).
Assay type: biochemical
Summary of the method: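 Rho kinase variant phosphorylates 1.5 μM FITC-AHA-AKRRRLSSLRA-OH with 5 μM ATP in 20 mM HEPES pH 7.5, 20 mM MgCl2, 0.015% Brij-35, 4 mM DTT, DMSO <2%. EDTA stops the reaction, and phospho and non-phospho peptides are resolved by LabChip 3000 mobility shift. IC50 from dose-response curve fit.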

Sequence of ROCK2 (O75116 whole entry, species assumed): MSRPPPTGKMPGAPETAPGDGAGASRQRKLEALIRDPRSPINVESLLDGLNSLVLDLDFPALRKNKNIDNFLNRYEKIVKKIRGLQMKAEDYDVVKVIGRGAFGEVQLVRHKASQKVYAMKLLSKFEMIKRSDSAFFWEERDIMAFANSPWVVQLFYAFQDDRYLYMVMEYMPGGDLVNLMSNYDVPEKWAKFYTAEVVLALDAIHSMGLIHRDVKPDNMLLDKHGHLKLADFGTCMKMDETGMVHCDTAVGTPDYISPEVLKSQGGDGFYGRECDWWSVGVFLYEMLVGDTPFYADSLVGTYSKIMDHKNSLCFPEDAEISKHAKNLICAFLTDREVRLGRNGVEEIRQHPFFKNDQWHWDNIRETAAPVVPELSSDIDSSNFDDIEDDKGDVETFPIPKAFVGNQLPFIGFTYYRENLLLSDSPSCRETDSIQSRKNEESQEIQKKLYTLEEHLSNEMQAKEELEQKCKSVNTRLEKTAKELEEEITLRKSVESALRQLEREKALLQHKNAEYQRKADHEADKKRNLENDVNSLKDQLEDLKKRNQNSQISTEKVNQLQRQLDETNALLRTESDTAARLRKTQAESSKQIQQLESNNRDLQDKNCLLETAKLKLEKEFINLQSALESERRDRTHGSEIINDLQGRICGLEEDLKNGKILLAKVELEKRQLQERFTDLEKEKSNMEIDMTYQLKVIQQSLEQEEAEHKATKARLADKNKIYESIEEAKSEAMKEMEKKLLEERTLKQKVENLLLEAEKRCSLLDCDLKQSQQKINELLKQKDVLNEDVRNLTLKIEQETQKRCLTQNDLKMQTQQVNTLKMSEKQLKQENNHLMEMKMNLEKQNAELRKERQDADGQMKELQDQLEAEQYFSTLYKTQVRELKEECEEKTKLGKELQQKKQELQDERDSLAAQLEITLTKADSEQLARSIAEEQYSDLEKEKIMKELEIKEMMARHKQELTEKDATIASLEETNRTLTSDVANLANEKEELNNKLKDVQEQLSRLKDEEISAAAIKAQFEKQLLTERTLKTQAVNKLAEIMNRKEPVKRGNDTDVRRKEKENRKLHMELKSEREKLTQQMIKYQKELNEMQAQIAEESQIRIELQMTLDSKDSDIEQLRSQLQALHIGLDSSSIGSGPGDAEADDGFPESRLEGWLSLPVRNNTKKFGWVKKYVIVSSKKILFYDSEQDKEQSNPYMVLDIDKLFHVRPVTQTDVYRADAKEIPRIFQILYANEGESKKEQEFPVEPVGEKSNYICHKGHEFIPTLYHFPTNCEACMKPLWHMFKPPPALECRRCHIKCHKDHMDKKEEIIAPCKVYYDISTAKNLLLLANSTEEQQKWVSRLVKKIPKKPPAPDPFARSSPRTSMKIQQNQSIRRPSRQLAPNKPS

| SMILES | IC50 [nM] |
| --- | --- |
| O=C(NC1CC2(C1)CC(c1n[nH]c(=O)c3ccccc13)C2)c1cnn2cc(CCCN3CCC(F)(F)C3)ccc12 [Example 197, 6-(3-(3,3-difluoropyrrolidin-1-yl)propyl)-N-((aR)-6-(4-oxo-3,4-dihydrophthalazin-1-yl)spiro[3.3]heptan-2-yl)pyrazolo[1,5-a]pyridine-3-carboxamide] | 0.2 to 2 |
| COc1c(C(=O)NC2CC3(C2)CC(c2n[nH]c(=O)c4ccccc24)C3)nc2ccccn12 (stereo not drawn) [Example 124, 3-methoxy-N-((αR)-6-(4-oxo-3,4-dihydrophthalazin-1-yl)spiro[3.3]heptan-2-yl)imidazo[1,2-α]pyridine-2-carboxamide] | 15.1 to 100 |
| Cc1c(OCc2ccccc2)ccc2c(C(=O)NC3CC4(C3)CC(c3n[nH]c(=O)c5ccccc35)C4)cnn12 (stereo not drawn) [Example 126, 6-(benzyloxy)-7-methyl-N-((αR)-6-(4-oxo-3,4-dihydrophthalazin-1-yl)spiro[3.3]heptan-2-yl)pyrazolo[1,5-α]pyridine-3-carboxamide] | 0.2 to 2 |
| [H][C@]1(c2n[nH]c(=O)c3ccccc32)C[C@@]2(C[C@H](NC(=O)c3cnc4cc(N5CC[C@@H](O)C5)ccn34)C2)C1 (stereo partly drawn) [Example 395, 7-((R)-3-hydroxypyrrolidin-1-yl)-N-((aR)-6-(4-oxo-3,4-dihydrophthalazin-1-yl)spiro[3.3]heptan-2-yl)imidazo[1,2-a]pyridine-3-carboxamide] | 2.01 to 5 |
| O=C(NC1CC2(C1)CC(c1n[nH]c(=O)c3ccccc13)C2)C1Cc2cc(Br)ccc2N1 [Example 468, 5-bromo-N-((aR)-6-(4-oxo-3,4-dihydrophthalazin-1-yl)spiro[3.3]heptan-2-yl)indoline-2-carboxamide,TFA] | 100 to 2100 |
| CC(C)(O)CCc1ccc2c(C(=O)N[C@H]3CC4(C3)C[C@H](c3n[nH]c(=O)c5ccccc53)C4)cnn2c1 (stereo partly drawn) [Example 198, 6-(3-hydroxy-3-methylbutyl)-N-((aR)-6-(4-oxo-3,4-dihydrophthalazin-1-yl)spiro[3.3]heptan-2-yl)pyrazolo[1,5-a]pyridine-3-carboxamide] | 0.2 to 2 |
| O=C(N[C@H]1CC2(C1)C[C@H](c1n[nH]c(=O)c3ccccc31)C2)c1cnc2cc(N3CCOCC3)ccn12 (stereo partly drawn) [Example 470, 7-morpholino-N-((aR)-6-(4-oxo-3,4-dihydrophthalazin-1-yl)spiro[3.3]heptan-2-yl)imidazo[1,2-a]pyridine-3-carboxamide, TFA] | 0.2 to 2 |
| Cc1nn(C)c(C)c1-c1ccc2c(c1)CCN2C(=O)NC1CC2(C1)CC(c1n[nH]c(=O)c3ccccc13)C2 [Example 237, N-((aR)-6-(4-oxo-3,4-dihydrophthalazin-1-yl)spiro[3.3]heptan-2-yl)-5-(1,3,5-trimethyl-1H-pyrazol-4-yl)indoline-1-carboxamide] | 2.01 to 5 |
| COC(=O)N1CC(Oc2ccc3c(C(=O)NC4CC5(C4)CC(c4n[nH]c(=O)c6ccccc46)C5)cnn3c2)C1 (stereo not drawn) [Example 136] | 2.01 to 5 |
| CC(C)(O)Cn1nc(C(=O)N[C@H]2CC3(C2)C[C@H](c2n[nH]c(=O)c4ccccc42)C3)c2ccc(Br)cc21 (stereo partly drawn) [Example 152, 6-bromo-1-(2-hydroxy-2-methylpropyl)-N-((αR)-6-(4-oxo-3,4-dihydrophthalazin-1-yl)spiro[3.3]heptan-2-yl)-1H-indazole-3-carboxamide] | 2.01 to 5 |
| Cc1nc(N2CCCC2)sc1C(=O)NC1CC2(C1)CC(c1n[nH]c(=O)c3ccccc13)C2 [Example 35, 4-methyl-N-[(aR)-6-(4-oxo-3,4-dihydrophthalazin-1-yl)spiro[3.3]heptan-2-yl]-2-(pyrrolidin-1-yl)-1,3-thiazole-5-carboxamide] | 5.1 to 15 |
| CC(C)(O)Cn1nc(C(=O)NC2CC3(C2)CC(c2n[nH]c(=O)c4ccccc24)C3)c2ccc(-c3ccccc3C#N)cc21 (stereo not drawn) [Example 160, 6-(2-cyanophenyl)-1-(2-hydroxy-2-methylpropyl)-N-((αR)-6-(4-oxo-3,4-dihydrophthalazin-1-yl)spiro[3.3]heptan-2-yl)-1H-indazole-3-carboxamide] | 0.2 to 2 |
| O=C(NC1CC2(C1)CC(c1n[nH]c(=O)c3ccccc13)C2)c1cnn2c(C(F)(F)F)c(OCc3ccccc3)ccc12 (stereo not drawn) [Example 141, 6-(benzyloxy)-N-((αR)-6-(4-oxo-3,4-dihydrophthalazin-1-yl)spiro[3.3]heptan-2-yl)-7-(trifluoromethyl)pyrazolo[1,5-α]pyridine-3-carboxamide] | 5.1 to 15 |
| CC(=O)N1CCc2c(C(=O)N[C@H]3CC4(C3)C[C@H](c3n[nH]c(=O)c5ccccc53)C4)csc2C1 (stereo partly drawn) [Example 274, 6-acetyl-N-((aR)-6-(4-oxo-3,4-dihydrophthalazin-1-yl)spiro[3.3]heptan-2-yl)-4,5,6,7-tetrahydrothieno[2,3-c]pyridine-3-carboxamide] | 5.1 to 15 |
| [H][C@]1(c2n[nH]c(=O)c3ccccc32)C[C@]2(C[C@@H](NC(=O)c3cnc4cc(OC5CCS(=O)(=O)CC5)ccn34)C2)C1 (stereo partly drawn) [Example 431, 7-((1,1-dioxidotetrahydro-2H-thiopyran-4-yl)oxy)-N-((aR)-6-(4-oxo-3,4-dihydrophthalazin-1-yl)spiro[3.3]heptan-2-yl)imidazo[1,2-a]pyridine-3-carboxamide] | 0.2 to 2 |

Other lines, results leading:

| IC50 [nM] | SMILES |
| --- | --- |
| 2.01 to 5 | COc1cccc(-n2cc(C(=O)NC3CC4(C3)CC(c3n[nH]c(=O)c5ccccc35)C4)nn2)c1 [Example 116, 1-(3-methoxyphenyl)-N-((aR)-6-(4-oxo-3,4-dihydrophthalazin-1-yl)spiro[3.3]heptan-2-yl)-1H-1,2,3-triazole-4-carboxamide] |
| 5.1 to 15 | [H][C@]1(c2n[nH]c(=O)c3ccccc32)C[C@]2(C[C@@H](NC(=O)c3ccc4c(ccn4C)c3)C2)C1 (stereo partly drawn) [Example 368, 1-methyl-N-((aR)-6-(4-oxo-3,4-dihydrophthalazin-1-yl)spiro[3.3]heptan-2-yl)-1H-indole-5-carboxamide] |
| 5.1 to 15 | O=C(NC1CC2(C1)CC(c1n[nH]c(=O)c3ccccc13)C2)c1cn2c(n1)sc1ccccc12 [Example 94, N-((aR)-6-(4-oxo-3,4-dihydrophthalazin-1-yl)spiro[3.3]heptan-2-yl)benzo[d]imidazo[2,1-b]thiazole-2-carboxamide] |
| 2.01 to 5 | [H][C@]1(c2n[nH]c(=O)c3ccccc32)C[C@]2(C[C@@H](NC(=O)c3ccc(-c4cnn(C)c4)c(F)c3)C2)C1 (stereo partly drawn) [Example 423, 3-fluoro-4-(1-methyl-1H-pyrazol-4-yl)-N-((aR)-6-(4-oxo-3,4-dihydrophthalazin-1-yl)spiro[3.3]heptan-2-yl)benzamide] |
| 2.01 to 5 | [H][C@]1(c2n[nH]c(=O)c3ccccc32)C[C@]2(C[C@@H](NC(=O)c3cc4cccc(C)c4[nH]3)C2)C1 (stereo partly drawn) [Example 322, 7-methyl-N-((aR)-6-(4-oxo-3,4-dihydrophthalazin-1-yl)spiro[3.3]heptan-2-yl)-1H-indole-2-carboxamide] |
| 15.1 to 100 | [H][C@]1(c2n[nH]c(=O)c3ccccc32)C[C@]2(C[C@@H](NC(=O)c3cccc(-n4cccn4)c3)C2)C1 (stereo partly drawn) [Example 336, N-((aR)-6-(4-oxo-3,4-dihydrophthalazin-1-yl)spiro[3.3]heptan-2-yl)-3-(1H-pyrazol-1-yl)benzamide] |
| 15.1 to 100 | [H][C@]1(c2n[nH]c(=O)c3ccccc32)C[C@]2(C[C@@H](NC(=O)c3ccc(-c4cnco4)cc3)C2)C1 (stereo partly drawn) [Example 358, 4-(oxazol-5-yl)-N-((aR)-6-(4-oxo-3,4-dihydrophthalazin-1-yl)spiro[3.3]heptan-2-yl)benzamide] |
| 15.1 to 100 | [H][C@]1(c2n[nH]c(=O)c3ccccc32)C[C@]2(C[C@@H](NC(=O)c3cn4cccc(C)c4n3)C2)C1 (stereo partly drawn) [Example 362, 8-methyl-N-((aR)-6-(4-oxo-3,4-dihydrophthalazin-1-yl)spiro[3.3]heptan-2-yl)imidazo[1,2-a]pyridine-2-carboxamide] |
| 5.1 to 15 | [H][C@]1(c2n[nH]c(=O)c3ccccc32)C[C@]2(C[C@@H](NC(=O)c3c[nH]c4ccccc34)C2)C1 (stereo partly drawn) [Example 300, N-((aR)-6-(4-oxo-3,4-dihydrophthalazin-1-yl)spiro[3.3]heptan-2-yl)-1H-indole-3-carboxamide] |
| 2.01 to 5 | [H][C@]1(c2n[nH]c(=O)c3ccccc32)C[C@@]2(C[C@H](NC(=O)c3cc4c(Cl)cccc4n3C)C2)C1 (stereo partly drawn) [Example 297, 4-chloro-1-methyl-N-((aR)-6-(4-oxo-3,4-dihydrophthalazin-1-yl)spiro[3.3]heptan-2-yl)-1H-indole-2-carboxamide] |
| 2.01 to 5 | Cc1ncc(-c2ccn3c(C(=O)NC4CC5(C4)CC(c4n[nH]c(=O)c6ccccc46)C5)cnc3c2)s1 [Example 455, 7-(2-methylthiazol-5-yl)-N-((aR)-6-(4-oxo-3,4-dihydrophthalazin-1-yl)spiro[3.3]heptan-2-yl)imidazo[1,2-a]pyridine-3-carboxamide] |
| 2.01 to 5 | Cn1cc(-c2ccn3ncc(C(=O)NC4CC5(C4)CC(c4n[nH]c(=O)c6ccccc46)C5)c3c2)cn1 [Example 85, 5-(1-methyl-1H-pyrazol-4-yl)-N-((aR)-6-(4-oxo-3,4-dihydrophthalazin-1-yl)spiro[3.3]heptan-2-yl)pyrazolo[1,5-a]pyridine-3-carboxamide] |
| 5.1 to 15 | [H][C@]1(c2n[nH]c(=O)c3ccccc32)C[C@]2(C[C@@H](NC(=O)c3cc4cccc(-c5cnn(C)c5)c4[nH]3)C2)C1 (stereo partly drawn) [Example 420, 7-(1-methyl-1H-pyrazol-4-yl)-N-((aR)-6-(4-oxo-3,4-dihydrophthalazin-1-yl)spiro[3.3]heptan-2-yl)-1H-indole-2-carboxamide] |
| 5.1 to 15 | COc1ccc(Cn2cc(C(=O)NC3CC4(C3)CC(c3n[nH]c(=O)c5ccccc35)C4)cn2)cc1 [Example 102, 1-(4-methoxybenzyl)-N-((aR)-6-(4-oxo-3,4-dihydrophthalazin-1-yl)spiro[3.3]heptan-2-yl)-1H-pyrazole-4-carboxamide] |
| 2.01 to 5 | Cc1cccc2c(C(=O)N[C@H]3CC4(C3)C[C@H](c3n[nH]c(=O)c5ccccc53)C4)cnn12 (stereo partly drawn) [Example 123, 7-methyl-N-((aR)-6-(4-oxo-3,4-dihydrophthalazin-1-yl)spiro[3.3]heptan-2-yl)pyrazolo[1,5-a]pyridine-3-carboxamide] |
